We go through three compounds from patent US5767116A, “Bicyclic aromatic compounds as therapeutic agents” (Knoll Atkiengesellschaft, priority 1993, dated 1998).

Assay [1] has as its target D2 dopamine receptors (Rattus norvegicus, UniProt P61169). The assay is described as follows: biochemical. The format is binding, rat (male Charles River CD). The settings on record: rat striatal tissue, tritiated (S)-sulpiride, 4° C., 40 minutes.
For assay [2], the target named is T1, 5-HT1A receptors (Rattus norvegicus, UniProt P19327).
T1 sequence (P19327 1-422): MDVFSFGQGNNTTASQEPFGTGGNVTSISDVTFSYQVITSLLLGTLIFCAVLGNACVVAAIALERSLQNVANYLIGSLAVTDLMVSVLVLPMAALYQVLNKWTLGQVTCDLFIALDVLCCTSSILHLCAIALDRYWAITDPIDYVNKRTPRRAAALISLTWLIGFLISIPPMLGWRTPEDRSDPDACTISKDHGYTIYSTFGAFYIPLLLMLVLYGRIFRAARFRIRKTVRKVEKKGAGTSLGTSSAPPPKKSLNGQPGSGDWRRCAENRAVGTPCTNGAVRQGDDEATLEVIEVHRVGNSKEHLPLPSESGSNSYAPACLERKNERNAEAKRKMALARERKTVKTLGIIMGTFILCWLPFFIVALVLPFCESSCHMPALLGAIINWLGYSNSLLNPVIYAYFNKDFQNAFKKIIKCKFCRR
The assay is described as follows: biochemical. The format is binding, rat (male Charles River CD). The settings on record: for Ki: rat hippocampal tissue, [^3 H]8-OH-DPAT, 25° C., 30 minutes. As to the method:
The pellet was rehomogenised in the same buffer, incubated at 37° C. for 10 minutes and centrifuged at 30,000 g at 4° C. for 10 minutes. […] Aliquots (400 μl; equivalent to 2.5 mg wet weight of tissue/tube) of this suspension were added to tubes containing the ligand (50 μl; 2 nM) and distilled water (50 μl; total binding) or 5-HT (50 μl; 10 µM; non-specific binding) or test compound (50 μl; at a single concentration of 10^-6 M or at 10 concentrations ranging from 10^-11 -10^-3 M). The ligand was [^3 H]8-hydroxy-2-(dipropylamino)tetralin([^3 H]8-OH-DPAT) and the mixture was incubated at 25° C. for 30 minutes before the incubation was terminated by rapid filtration.
(§1) The filters were punched out into vials, scintillation fluid added and radioactivity determined by liquid scintillation counting. The percentage displacement of specific binding of the tritiated ligand was calculated for the single concentration (10^-6 M) of test compound. Displacement curves were then produced for those compounds which displaced ≥50% of specific binding of the tritiated ligand at 10^-6 M using a range of concentrations of the compound. […] The inhibition coefficient Ki was then calculated using the formula [formula] in which [ligand] is the concentration of the tritiated ligand used and KD is the equilibrium dissociation constant for the ligand.

For assay [3], the target named is α1-adrenoceptors. The assay is described as follows: inhibition of tritiated ligand ([7-methoxy-^3 H]prazosin) binding to α1-adrenoceptors in vitro (whole cortical tissue). More on the design: species or system rat (male Charles River CD). Particulars: rat whole cortical tissue; for Ki: 30° C., 30 minutes, > from highest concentration which displaced ≤50% of the ligand. As to the method: The supernatant was centrifuged at 30,000 g at 4° C. for 10 minutes. […] Aliquots (400 μl; equivalent to 5 mg wet weight of tissue/tube) of this suspension were added to tubes containing the ligand (50 μl; 0.1 nM) and distilled water (50 μl; total binding) or phentolamine (50 μl; 5 μM; non-specific binding) or test compound (50 μl; at a single concentration of 10^-6 M or at 10 concentrations ranging from 10^-11 -10^-3 M). The ligand was [7-methoxy-^3 H]prazosin and the mixture was incubated at 30° C. for 30 minutes before the incubation was terminated by rapid filtration.
as §1

Assay [4] addresses T2, α2-adrenoceptors (Rattus norvegicus, UniProt P22909).
T2 sequence (P22909 1-465): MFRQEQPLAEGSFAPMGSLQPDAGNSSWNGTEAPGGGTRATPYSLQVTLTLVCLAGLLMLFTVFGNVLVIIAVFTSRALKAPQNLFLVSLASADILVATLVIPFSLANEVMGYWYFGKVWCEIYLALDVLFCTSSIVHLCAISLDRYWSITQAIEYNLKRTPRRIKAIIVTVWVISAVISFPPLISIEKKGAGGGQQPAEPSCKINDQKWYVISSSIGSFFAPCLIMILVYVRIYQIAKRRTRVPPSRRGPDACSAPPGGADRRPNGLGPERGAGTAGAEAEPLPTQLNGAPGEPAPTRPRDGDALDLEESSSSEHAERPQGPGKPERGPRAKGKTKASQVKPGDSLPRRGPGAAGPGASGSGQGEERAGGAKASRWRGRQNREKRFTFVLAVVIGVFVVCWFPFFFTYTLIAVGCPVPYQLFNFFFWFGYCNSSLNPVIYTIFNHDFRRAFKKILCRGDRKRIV
The assay is described as follows: inhibition of tritiated ligand (tritiated idazoxan) binding to α2-adrenoceptors in vitro (frontal cortical tissue). More on the design: species or system rat (male Charles River CD). Particulars: for Ki: rat frontal cortical tissue, tritiated idazoxan, 0° C., 75 minutes, > from highest concentration which displaced ≤50% of the ligand. As to the method:
Frontal cortical tissue from the brains of male Charles River CD rats weighing between 150-250 g were homogenised in ice-cold 0.25M sucrose (1:30 w/v) and centrifuged at 1,000 g at 4° C. for 12 minutes. The supernatant was stored on ice and the pellet was rehomogenised in 0.25M sucrose (1:15 w/v) and centrifuged at 850 g at 4° C. for 12 minutes. Combined supernatants were diluted with 5 mM Tris-HCl (pH 7.5) containing 0.5M ethylenediamine tetraacetic acid (EDTA) readjusted to pH 7.5 (at 25° C.) with 1M sodium hydroxide to 1:80 w/v, and centrifuged at 30,000 g at 4° C. for 10 minutes. The resulting pellet was resuspended in 5 mM Tris-HCl (pH 7.5) containing 5.68 mM L-ascorbic acid and 5 mM EDTA readjusted to pH 7.5 (at 25° C.) with 1M sodium hydroxide, and centrifuged at 30,000 g for 10 minutes. The final pellet was resuspended in 50 mM Tris-HCl (pH 7.5) containing 5.68 mM L-ascorbic acid and 5 mM EDTA (equivalent to 12.5 mg wet weight of tissue/ml) and used immediately in the binding assay. Aliquots (400 μl; equivalent to 5 mg wet weight of tissue/tube) of this suspension were added to tubes containing the ligand (50 μl; 1 nM) and distilled water (50 μl; total binding) or phentolamine (50 μl; 5 μM; non-specificbinding) or test compound (50 μl; at a single concentration of 10^-6 M or at 10 concentrations ranging from 10^-11 -10^-3 M). The ligand was tritiated idazoxan ((1,4-[6,7(n)-^3 H]benzodioxan-2-yl)-2-imidazoline hydrochloride) and the mixture was incubated at 0° C. for 75 minutes before the incubation was terminated by rapid filtration.
as §1, with “The filters were washed with ice-cold Tris-HCl buffer and dried. The filters” for “The filters”

Structures can show the parent of a compound that is named as a salt.

Sequence of D2 dopamine receptors (P61169 whole entry): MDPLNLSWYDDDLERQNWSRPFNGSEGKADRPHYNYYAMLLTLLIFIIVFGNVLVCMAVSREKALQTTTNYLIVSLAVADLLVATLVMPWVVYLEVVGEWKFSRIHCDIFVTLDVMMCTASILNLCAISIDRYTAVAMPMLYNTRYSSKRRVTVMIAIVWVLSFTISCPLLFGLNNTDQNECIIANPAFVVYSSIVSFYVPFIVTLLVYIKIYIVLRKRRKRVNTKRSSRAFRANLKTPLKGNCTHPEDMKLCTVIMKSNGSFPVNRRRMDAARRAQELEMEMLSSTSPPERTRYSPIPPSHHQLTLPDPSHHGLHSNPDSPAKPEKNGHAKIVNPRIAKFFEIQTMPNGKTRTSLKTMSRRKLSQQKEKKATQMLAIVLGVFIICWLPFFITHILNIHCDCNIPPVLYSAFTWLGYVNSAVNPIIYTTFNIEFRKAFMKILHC

For the compound `c1ccc2c(c1)OCC(CNCC1CCN(c3ncnc4ccccc34)CC1)O2` (stereo not drawn) [Example 4, N-(1,4-benzodioxan-2-ylmethyl)-1-[1-(quinazolin-4-yl)piperid-4-yl]methylamine dihydrochloride], the inhibition constant Ki (usually the dissociation constant of the complex between target and ligand, obtained from inhibition or displacement) in assay [1] turned out to be 35.8 nM; in assay [2] it was 3.8 nM; in assay [3], 13 nM; in assay [4], 30 nM.

As for `c1ccc(N2CCC(CNCC3COc4ccccc4O3)CC2)nc1` (stereo not drawn) [Example 5, N-(1,4-benzodioxan-2-ylmethyl)-1-[1-(pyrid-2-yl)piperid-4-yl]methylamine dihydrochloride], the Ki turned out to be 29 nM in assay [1], 22.6 nM in assay [2], 79 nM in assay [3] and 50 nM in assay [4].

`COc1cccc2c1OC(CNCC1CCN(c3cccc4c3OCC4)CC1)CO2.Cl` (stereo not drawn) [Example 25, 1-[1-(2,3-dihydrobenzo[b]furan-7-yl)piperid-4-yl]-N-(8-methoxy-1,4-benzodioxan-2-ylmethyl) methylamine hydrochloride] displayed a Ki in assay [1] of 20.9 nM. Moreover, the inhibition at 1 µM stood at 101% in assay [2] (read-out: % displacement at 10^-6 M, 5-HT1A, 10^-6 M, rat hippocampal tissue, [^3 H]8-OH-DPAT) and 96% in assay [4] (read-out: % displacement at 10^-6 M, α2, 10^-6 M, rat frontal cortical tissue, tritiated idazoxan). The “% displacement at 10^-6 M, α1” value in assay [3] (10^-6 M, 30 min, 1 µM) is listed as 99%.
